Test results taken from patent US20020151562A1, “Compositions and methods for treating allergic fungal sinusitis” (priority 2001, published 2002).
Entries after “also recorded” stand apart in the source; their conditions may differ.

System: patients diagnosed to have allergic fungal sinusitis resistant to treatment
Assay: Nasal Spray Study: patient questionnaire after two months of intranasal treatment
Conditions: for effectiveness in treating allergic fungal sinusitis, allergic rhinitis and asthma (symptom relief): extremely low dose, patients resistant to standard treatments including corticosteroids; for side effects: low dose, patients tested
Source text: Fifty-four patients were selected on the basis of their failure to respond to intranasal corticosteroids for the treatment of acute and chronic sinusitis and allergic rhinitis and positive skin tests to fungi. […] The age range was 6 years to 71 years.
Each patient was instructed to use two sprays in each nostril twice daily, AM and PM for a total of four sprays per nostril per day. Treatment lasted for two months.
Therefore, the status of the patients' symptoms were documented over a period of two months.
The following statements were posed to the patients after treatment for two months with regard to their symptoms before and after the course of treatment.

[1] = intranasal, listed as compound of formula I

CC(C)(O)c1ccccc1CC[C@@H](SCC1(CC(=O)[O-])CC1)c1cccc(/C=C/c2ccc3ccc(Cl)cc3n2)c1.[Na+] [sodium salt of montelukast, montelukast]
Total Number of Patients Post Treatment Reporting Improvement (sinus pain, post nasal drip and nasal congestion worse in cold weather) (52 tested, 21 reporting prior to treatment, intranasal, two months): 14 patients | Total Number of Patients Post Treatment that Reported Improvement (worry that sinus pain, post nasal drip and nasal congestion affect health and make it difficult to sleep) (52 tested, 31 reporting prior to treatment, intranasal, two months): 30 patients | Total Number of Patients Reporting Improvement (sinus and nasal congestion worse around tobacco smoke, fumes or strong odors) (52 tested, 42 reporting prior to treatment, intranasal, two months): 24 patients | Total Number of Patients Post Treatment Reporting Improvement (sleeping trouble due to coughing and choking attacks, post nasal drip and sinus pain) (52 treated, 29 reporting prior to treatment, intranasal, two months): 28 patients | Total Number of Patients Post Treatment that Reported Improvement (allergy medicine does not control nasal congestion, sinusitis, post nasal drip and ear congestion) (52 treated, 42 reporting prior to treatment, intranasal, two months): 42 patients | Total Number of Patients Reporting Improvement (respiratory infection goes into sinuses, ears and nose) (52 treated, 44 reporting prior to treatment, intranasal, two months): 27 patients | Total Number of Patients Post Treatment Reporting Improvement (dust, pollen and pets cause nasal congestion, sinus pain, ear pain and dizziness) (52 treated, 45 reporting prior to treatment, intranasal, two months): 37 patients | patients with positive results and alleviation of major symptoms (at the end of two months, of the fifty-two patients, intranasal saline spray): forty-two | effectiveness in treating allergic fungal sinusitis, allergic rhinitis and asthma (symptom relief) (intranasal): effective not only in relieving nasal congestions, sinus pain, post nasal drip, throat pain and serous otitis media, but it also helped their asthma; also recorded: effective | effectiveness in treating allergic fungal sinusitis, allergic rhinitis and asthma (symptom relief) [1]: improvement in these non-responders was noticed | side effects (intranasal): no significant side effects | side effects [1]: without harmful effects | time to some recovery after application (nasal spray, low dosages): within one day | Total Number of Patients Reporting Improvement of Breathing Post-Treatment (statement: trouble breathing or cough when walking or doing simple chores, 52 treated, 34 with trouble breathing before treatment, intranasal, two months): 24 patients
